System: phosphorylated p70S6K (Thr389)
Assay: Phosphorylated p70S6K (Thr389) level in insulin-stimulated C3H10T1/2 cells (Western blot)
Type: cell-based, Mouse
Design: key to Phosphorylated p70S6K (Thr389) level, % vs. Vehicle: *: under detectable level
Conditions: for Phosphorylated p70S6K (Thr389) level, % vs. Vehicle: vehicle = 100%
Experimental: Mouse embryonic mesenchymal stem cells, C3H10T1/2 cells, (ATCC, USA, #CCL-226), were cultured in DMEM (low glucose […], Gibco), supplemented with 10% FBS and 2 mM L-Glutamine (Gibco). 2×10^5 cells /well were seeded in 6-well plate and grown to 80% confluency. Cells were treated with either rapamycin (Tocris, UK, #1292) at 100 nM, EGCG (TEAVIGO®, DSM Nutritional Product ltd. Switzerland) at 10 microM , resveratrol (DSM Nutritional Products Ltd. Switzerland) at 0.1, 1, 10 μM or combination of EGCG (10 microM) and resveratrol (0.1,1, 10 μM) for 30 min, then stimulated with insulin (Sigma, Switzerland) at 100 nM for 30 min. Cells were washed twice with PBS and harvested in 0.4 ml NETT buffer (0.1 M NaCl, 10 mM Tris-HCL (pH 7.6), 1 mM EDTA, 1% Triton X-100, pH 7.6 ). Cell lysates were sonicated and centrifuged at 14,000 rpm for 2 min. Protein concentration was determined using BCA assay (PIERCE, USA #23223). 10 microgram whole cell extracts were loaded on SDS-gel (10-20% Tricine gradient gel) and blotted on nitrocellulose membrane (0.2 μm pore, Invitrogen, #LC2000 ). Blot was incubated first with monoclonal antibody, phosphor-p70 S6 Kinase (Thr389)(1A5) mouse mAb (Cell signaling technology, #9206) at 1:2000 dilution, then with secondary antibody, goat anti-mouse IgG HRP (Santa Cruz, USA, #SC2055) at 1:10000. Protein load was control by measuring β-actin using anti mouse β-actin (Sigma, Switzerland, #A-5441). The signals were detected using ECL plus Western Blotting Detection System (Amersham Biosciences; RPN2132). Membrane was exposed to X-ray film for 30′ (Hyperfilm ECL; High performance chemiluminescence film, Amersham Biosciences; RPN1674 ) and films were scanned with ChemiGenius 2 machine (Syngene, UK). The signals were quantified by using GeneTools software (Syngene, UK). Signal of phosphorylated p70S6K was normalized to the protein load control β-actin, and vehicle was set up as 100%.

[1] = 10 μM single agent, insulin 100 nM

(−)-epigallocatechin gallate [EGCG]
Phosphorylated p70S6K (Thr389) level, % vs. Vehicle [1]: 117.20%
effect on phosphorylated p70S6K (Thr389) amount (in words) (10 microM): little effect

Oc1ccc(C=Cc2cc(O)cc(O)c2)cc1 [Resveratrol, resveratrol]
Phosphorylated p70S6K (Thr389) level, % vs. Vehicle (0.1 μM single agent, insulin 100 nM): 95.23%
Phosphorylated p70S6K (Thr389) level, % vs. Vehicle (1 μM single agent, insulin 100 nM): 106.9157%
Phosphorylated p70S6K (Thr389) level, % vs. Vehicle [1]: 132.715%
effect on phosphorylated p70S6K (Thr389) amount (in words) (0.1, 1 and 10 microM): no influence

CO[C@H]1C[C@@H]2CC[C@@H](C)[C@@](O)(O2)C(=O)C(=O)N2CCCC[C@H]2C(=O)O[C@H]([C@H](C)C[C@@H]2CC[C@@H](O)[C@H](OC)C2)CC(=O)[C@H](C)/C=C(\C)[C@@H](O)[C@@H](OC)C(=O)[C@H](C)C[C@H](C)/C=C/C=C/C=C/1C [Rapa, rapamycin, reference compound]
Phosphorylated p70S6K (Thr389) level, % vs. Vehicle (100 nM, 30 min pretreatment then insulin 100 nM 30 min, normalized to β-actin): *

From patent US20080262081A1, “Novel Use of Nutraceutical Compositions Comprising Resveratrol” (priority 2005, published 2008)
